Laboratory results from PMC9144902, “Metal(II) Complexes of the Fluoroquinolone Fleroxacin: Synthesis, Characterization and Biological Profile” (Pharmaceutics, 2022).
Where two headings read alike, the source gives them in different places.

Assays:
[1] = tested on: Bacillus subtilis ATCC 6633; assay: Antimicrobial activity, MIC determination; type: cell-based
Procedure: (§1) The in vitro antimicrobial activity of the compounds was evaluated by determining the minimum inhibitory concentration (MIC) against the Gram-positive microorganisms Staphylococcus aureus ATCC 6538 (S. aureus) and Bacillus subtilis ATCC 6633 (B. subtilis) and the Gram-negative microorganism Xanthomonas campestris ATCC 1395 (X. campestris). The affinity of the compounds for bovine serum albumin (BSA) and human serum albumin (HSA) was studied by fluorescence emission spectroscopy, and the corresponding binding constants were determined. Furthermore, the interaction of the compounds with calf-thymus DNA (CT DNA) was investigated to determine the possible mode of interaction by the following methods: (i) UV–vis spectroscopy (where the DNA-binding constants of the complexes (Kb) were also determined), (ii) DNA-viscosity measurements, (iii) cyclic voltammetry and (iv) competitive DNA-binding studies with the classic intercalator ethidium bromide (EB) performed by fluorescence emission spectroscopy.
(§2) Three bacterial strains, one Gram(−) (X. campestris) and two Gram(+) (S. aureus and B. subtilis), were used in order to test the antimicrobial activity of the compounds.
(§3) The antimicrobial activity of the compounds was evaluated b y determining their respective MIC values towards one Gram–( –) (Xanthomonas campestris ATCC 1395 (X. campestris)) and two Gram–(+) (Staphylococcus aureus ATCC 6538 (S. aureus) and Bacillus subtilis ATCC 6633 (B. subtilis)) bacterial species. Cultures of these microbial strains were grown on a rich selective agar medium and stored at 4°C. The selective media used were Nutrient Agar or Broth for B. subtilis and S. aureus, and Yeast Mold Agar or Broth for X. campestris . Cells picked from the surface of the stored cultures were used to initiate liquid pre–cultures of the same selective medium at an initial turbidity of roughl y 1 McFarland unit. Pre–cultures were incubated for 24 h in a rotar y sh aking incubator and subsequently the y were used to inoculate the test cultures used for the determination of MIC at an initial turbidity of 0.5 McFarland units. The test cultures consisted of Mueller–Hinton broth (Deben Diagnostics Ltd) containing different concentrations of the compounds. Different concentrations were achieved as follows: the compounds were freshly dissolved in DMSO to a concentration of 1 mg/mL and they were diluted with DMSO, using the method of progressive double dilution. Therefore, working solutions with decreasing concentrations of the compounds under investigation were achieved. The working solutions were subsequently diluted to the final desired concentration b y addition to the growth medium at a proportion of 2:98. MIC values were determined as the lowest concentrations of the tested compounds that inhibited visible growth of each respective organism after a 24–h incubation [ S1]. Bacterial growth was determined b y measuring the turbidit y of appropriatel y diluted cultures at 600 nm with reference to equall y diluted sterile growth medium and the inhibition achieved was calculated b y comparing the turbidit y of each culture to the average of the turbidit y of three non–inhibited cultures. All test cultures were grown in triplicates and for the determination of MIC, growth had to be inhibited in at least two cultures of the triplicate. In cubation temperatur e at all stages was 37°C ex cept for X. campestris t h at was cultivated at 28°C [S2]. […]
(§4) The fluorescence spectra of the compounds were recorded under the same experimental conditions and presented a low–intensity emission band in the region 405–410 nm .

[2] = tested on: Staphylococcus aureus ATCC 6538; assay: Antimicrobial activity, MIC determination; type: cell-based
Procedure: as §1, §2, §3, §4

[3] = tested on: Xanthomonas campestris ATCC 1395; assay: Antimicrobial activity, MIC determination; type: cell-based
Procedure: as §1, §2, §3, §4

[4] = biological target: T1, bovine serum albumin (BSA) (Bos taurus, UniProt P02769); assay: Albumin binding by tryptophan fluorescence emission quenching; conditions: for kq(BSA), BSA-quenching constant / K(BSA), BSA-binding constant: BSA 3 μM; for kq(BSA), BSA-quenching constant: buffer pH 7.0, λexc 295 nm, Stern–Volmer, τ0 = 10^–8 s; for BSA fluorescence, % of the initial fluorescence intensity (I/Io): λem,max = 342 nm, final value of titration (Figure S11); for K(BSA), BSA-binding constant: buffer pH 7.0, Scatchard equation
T1 construct: purchased
T1 sequence (P02769 25-607): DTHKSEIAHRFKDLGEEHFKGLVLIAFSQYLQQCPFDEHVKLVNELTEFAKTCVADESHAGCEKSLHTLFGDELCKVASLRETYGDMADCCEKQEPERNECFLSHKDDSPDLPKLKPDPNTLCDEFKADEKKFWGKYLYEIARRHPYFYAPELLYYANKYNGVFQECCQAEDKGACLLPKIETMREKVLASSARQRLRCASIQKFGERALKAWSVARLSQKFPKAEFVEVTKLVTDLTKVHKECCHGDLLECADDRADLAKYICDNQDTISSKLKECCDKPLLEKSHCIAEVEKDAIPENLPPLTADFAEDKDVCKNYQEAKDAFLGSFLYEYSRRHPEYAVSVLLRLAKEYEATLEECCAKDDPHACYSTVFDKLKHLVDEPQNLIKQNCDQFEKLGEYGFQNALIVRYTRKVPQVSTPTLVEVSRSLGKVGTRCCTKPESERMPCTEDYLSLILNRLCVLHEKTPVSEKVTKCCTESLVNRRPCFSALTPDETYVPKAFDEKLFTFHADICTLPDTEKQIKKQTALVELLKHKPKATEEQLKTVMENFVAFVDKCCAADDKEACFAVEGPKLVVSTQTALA
Procedure: (§5) Serum albumins (Sas) are the most abundant serum proteins and play a role in the circulatory system, primarily in the transport of drugs and other bioactive small molecules through the bloodstream.
(§6) The SA-quenching constants (kq) for the compounds (Table 5) were calculated with the Stern–Volmer quenching equation (Equations (S2) and (S3)).
(§7) Albumin-binding constants (K) were calculated using the Scatchard equation (Equation (S4)). […]
(§8) S2. Interaction with serum albumins
(§9) The albumin–binding study for the compounds was carried out b y fluorescence emission

[5] = biological target: T2, human serum albumin (HSA) (Homo sapiens, UniProt P02768); assay: as above; conditions: for kq(HSA), HSA-quenching constant / K(HSA), HSA-binding constant: HSA 3 μM; for kq(HSA), HSA-quenching constant: buffer pH 7.0, λexc 295 nm, Stern–Volmer, τ0 = 10^–8 s; for HSA fluorescence, % of the initial fluorescence intensity (I/Io): λem,max = 351 nm, final value of titration (Figure S10); for K(HSA), HSA-binding constant: buffer pH 7.0, Scatchard equation
T2 construct: purchased
T2 sequence (P02768 25-609): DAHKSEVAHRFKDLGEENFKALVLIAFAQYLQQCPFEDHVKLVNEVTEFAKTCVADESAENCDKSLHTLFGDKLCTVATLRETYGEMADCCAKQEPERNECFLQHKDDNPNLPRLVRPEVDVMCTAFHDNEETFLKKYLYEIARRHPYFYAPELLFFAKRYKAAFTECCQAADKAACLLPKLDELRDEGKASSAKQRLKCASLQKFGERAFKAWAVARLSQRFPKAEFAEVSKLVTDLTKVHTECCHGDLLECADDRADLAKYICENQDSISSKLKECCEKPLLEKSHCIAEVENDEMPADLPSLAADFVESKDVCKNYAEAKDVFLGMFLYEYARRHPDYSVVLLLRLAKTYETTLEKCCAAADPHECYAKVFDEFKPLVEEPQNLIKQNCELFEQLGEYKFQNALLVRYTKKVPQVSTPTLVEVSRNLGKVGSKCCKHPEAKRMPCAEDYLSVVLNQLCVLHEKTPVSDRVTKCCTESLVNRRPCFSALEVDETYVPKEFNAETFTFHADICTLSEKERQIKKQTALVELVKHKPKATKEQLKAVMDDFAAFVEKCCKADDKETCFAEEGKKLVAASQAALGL
Procedure: as §5, §6, §7, §8, §9

[6] = tested on: EB–DNA adduct (CT DNA); assay: Competitive study with EB (EB–DNA fluorescence quenching); type: binding, calf; conditions: for Ksv, Stern–Volmer constant: EB–DNA adduct; for ΔI/Io, percentage of EB–DNA fluorescence quenching: [EB] = 20 μM, [DNA] = 26 μM, λexc 540 nm, λem 592 nm; for EB–DNA relative fluorescence emission intensity, % of the initial (I/Io): λemission = 592 nm, final value (up to), Figure S14; for kq, EB–DNA quenching constant: τo = 23 ns
Procedure: Ethidium bromide is a typical marker of intercalation because it can intercalate between adjacent DNA bases with its planar phenanthridine ring.
The fluorescence emission spectra of the EB–DNA adduct ([EB] = 20 μM, [DNA] = 26 μM) in the absence and presence of the compounds were recorded at increasing amounts of the respective compounds. […] As a conclusion, an intercalative interaction of the complexes with CT DNA can be proposed.
The values of the Stern–Volmer constants (Ksv) for the compounds were calculated using the linear Stern–Volmer equation (Equation (S2)) and were of the order of 10^5 M^−1 (Table 8), indicating tight binding of the complexes with DNA [61]. The Ksv values for the complexes are in the range found for a number of metal(II)–quinolone complexes, and complex 12 presents the highest Ksv value (Ksv = 7.25(±0.30) × 10^5 M^−1) among the compounds studied. In addition, the EB–DNA quenching constants (kq) for the compounds were calculated with Equation (S3), assuming τo = 23 ns as the fluorescence lifetime. The values of kq (Table 8) are much higher than the value of 10^10 M^−1s^−1, indicating a static mechanism of EB–DNA fluorescence quenching induced by the compounds, which can result from the formation of a new adduct apparently consisting of each complex and DNA [61].
In order to determine and confirm the DNA–binding mode of the compounds, a competitive study with EB as an intercalating marker is performed b y fluorescence emission spectroscopy.
Therefo re, the E B–displacing abilit y of the compounds from its EB –DN A conjugate was ex amined.
The DNA–EB adduct was prepared b y addition of 20 μM EB and 26 μM CT DNA in buffer solution (150 mM NaCl and 15 mM trisodium citrate at pH 7.0). The potential intercalation of the compounds between the DNA–bases was studied by the addition of a certain amount of the compound solution into the EB–DNA adduct solution. The influence of the compounds on the EB – DNA solution was monitored through the changes of the fluorescence emission spectra at excitation […]
wavelen gth (λex ) at 540 nm [S3]. […]
room temperature in solution or in the presence of DNA, under the same experimental conditions (λex = 540 nm). Bearing t hat in mind, the observed quenching of the EB–DNA solution is evidentl y associated to the displacement of EB from its EB–DNA adduct.
The quenching effici ency (KSV) for each compound was assessed according to the Stern – Volmer equation: Io =1+ k τ [Q] = 1+ K [Q], (eq. S2) [S3] where I0 and I = the fluorescence […]
emission intensities of EB–DNA in the absence and presence of the quencher, respectivel y, [Q] = the concentration of the quencher (i.e. compounds). KSV is obtained from t he Stern–Volmer plots b y the slope of the diagram I0/ I versus [Q]. Taking τ0 = 23 ns as the fluorescence lifetime of the EB– DNA s ystem [S5], the EB –DNA quenching constants (k q) of the compounds can be determined accordin g to eq.S3: K SV = kqτo . […]
[S2] Irgi, E.P.; Geromichalos, G.D.; Balala, S.; Kljun, J.; Kalogiannis, S.; Papadopoulos, A.; Turel, I.; Psomas, G. Cobalt(II) complexes with quinolone antimicrobial drug oxolinic acid: […]
[ S 5] Heller, D.P.; Greenstock, C.L. Fluorescence lifetime analysis of DNA intercalated ethidium bromide and quenching by free d ye. Biophys. Chem . 1994, 50, 305–312.

[7] = B. subtilis, 24-h incubation, 37°C
[8] = S. aureus, 24-h incubation, 37°C
[9] = X. campestris, 24-h incubation, 28°C

| SMILES | kq(BSA), BSA-quenching constant [4] | BSA fluorescence, % of the initial fluorescence intensity (I/Io) [4] | kq(HSA), HSA-quenching constant [5] | HSA fluorescence, % of the initial fluorescence intensity (I/Io) [5] | Ksv, Stern–Volmer constant [6] | ΔI/Io, percentage of EB–DNA fluorescence quenching [6] | EB–DNA relative fluorescence emission intensity, % of the initial (I/Io) [6] | kq, EB–DNA quenching constant [6] | MIC [1, 7] | MIC (values in parentheses) [1, 7] | MIC [2, 8] | MIC (values in parentheses) [2, 8] | MIC [3, 9] | MIC (values in parentheses) [3, 9] | K(BSA), BSA-binding constant [4] | K(HSA), HSA-binding constant [5] | further results |
| --- | --- | --- | --- | --- | --- | --- | --- | --- | --- | --- | --- | --- | --- | --- | --- | --- | --- |
| CN1CCN(c2c(F)cc3c(=O)c(C(=O)O)cn(CCF)c3c2F)CC1 [Fleroxacin, 6,8-difluoro-1-(2–fluoroethyl)-7-(4-methylpiperazin-1-yl)-4-oxoquinoline-3-carboxylic acid] | 6.19(±0.23) × 10^12 M^−1s^−1 | 47.5% | 2.69(±0.11) × 10^12 M^−1s^−1 | 66.5% | 4.64(±0.14) × 10^5 M^–1 | 65.8% | 34.2% | 2.02(±0.06) × 10^13 M^−1s^−1 | – | – | – | – | – | – | – | – | MIC ([1]; Bacillus subtilis, ATCC6633, 24 h): 4 µg/mL; MIC ([1]; Bacillus subtilis, ATCC6633, 24 h, read-out: MIC (values in parentheses)): 10.8 µM; MIC ([2]; Staphylococcus aureus, ATCC6538, 24 h): 4 µg/mL; MIC ([2]; Staphylococcus aureus, ATCC6538, 24 h, read-out: MIC (values in parentheses)): 10.8 µM; MIC ([3]; Xanthomonas campestris, ATCC1395, 24 h): 8 µg/mL; MIC ([3]; Xanthomonas campestris, ATCC1395, 24 h, read-out: MIC (values in parentheses)): 21.7 µM; Kd [4]: 30.5 µM; Kd [5]: 15.2 µM |
| CN1CCN(c2c(F)cc3c(=O)c(C(=O)[O-])cn(CCF)c3c2F)CC1.CN1CCN(c2c(F)cc3c(=O)c(C(=O)[O-])cn(CCF)c3c2F)CC1.CO.CO.[Zn+2] [complex 3, [Zn(flrx)2(MeOH)2]] | 4.55(±0.21) × 10^13 M^−1s^−1 | 10.8% | 2.26(±0.10) × 10^13 M^−1s^−1 | 19.8% | 6.07(±0.17) × 10^5 M^–1 | 85.9% | 14.1% | 2.64(±0.07) × 10^13 M^−1s^−1 | 8 µg/mL | 9.2 µM | 8 µg/mL | 9.2 µM | 32 µg/mL | 36.8 µM | 1.86(±0.08) × 10^5 M^−1 | 6.15(±0.25) × 10^4 M^−1 | – |
| CN1CCN(c2c(F)cc3c(=O)c(C(=O)[O-])cn(CCF)c3c2F)CC1.CN1CCN(c2c(F)cc3c(=O)c(C(=O)[O-])cn(CCF)c3c2F)CC1.[Zn+2].c1ccc(-c2ccccn2)nc1 [complex 12, [Zn(flrx)2(bipy)]] | 1.74(±0.08) × 10^13 M^−1s^−1 | 14.1% | 1.24(±0.04) × 10^13 M^−1s^−1 | 25.9% | 7.25(±0.30) × 10^5 M^–1 | 88.6% | 11.4% | 3.15(±0.13) × 10^13 M^−1s^−1 | 8 µg/mL | 8.3 µM | 8 µg/mL | 8.3 µM | 16 µg/mL | 16.7 µM | 7.89(±0.33) × 10^4 M^−1 | 1.04(±0.06) × 10^5 M^−1 | – |
| CN1CCN(c2c(F)cc3c(=O)c(C(=O)[O-])cn(CCF)c3c2F)CC1.CN1CCN(c2c(F)cc3c(=O)c(C(=O)[O-])cn(CCF)c3c2F)CC1.[Zn+2].c1ccc(Nc2ccccn2)nc1 [complex 13, [Zn(flrx)2(bipyam)]] | 3.37(±0.14) × 10^13 M^−1s^−1 | 14.6% | 1.23(±0.05) × 10^13 M^−1s^−1 | 27.9% | 6.51(±0.19) × 10^5 M^–1 | 81.8% | 18.2% | 2.84(±0.08) × 10^13 M^−1s^−1 | 4 µg/mL | 4.1 µM | 8 µg/mL | 8.2 µM | 16 µg/mL | 16.4 µM | 3.60(±0.14) × 10^4 M^−1 | 3.69(±0.14) × 10^4 M^−1 | – |
